Consider 21 molecules from US9624234B2, “Heterocyclic compounds and methods for their use” (Novartis AG, priority 2012, dated 2017).

In the test the target is AT2 receptor (Homo sapiens (Human), UniProt P50052). Description: AT2 receptor binding ([125I]-CGP42112A radioligand, HEK293/AT2 receptor membranes). The settings on record: HEK293/AT2 receptor transient transfected cell membranes, RT 1.5 hrs. On the procedure: • 1. Trypsin-EDTA (for preparation of 100 mL) • Trypsin 0.25 g • 2% EDTA 2 mL • PBS 98 mL • Dissolve trypsin in 2% EDTA and PBS completely; sterilize the solution by passing through a […] membrane filter; store at 4° C. • 2. DMEM medium (for preparation of 1 L) • The powder was dissolved into 950 mL of distilled water with gentle stirring until the solution becomes clear. • Add NaHCO3 1.176 g for DMEM medium. • Adjust pH of medium to 0.2-0.3 below final working pH using 1 M NaOH or 1 M HCl. Add slowly with stirring. • Dilute to 1 liter with ddH2O. • Sterilize the medium immediately by filtration. • Store at 4° C. • 3. TE buffer • 20 mM Tris-HCl, pH 7.4, • 5 mM EDTA • 4. Binding Assay Buffer • 50 mM Hepes, pH 7.4 • 5 mM MgCl2 • 1 mM CaCl2 • 0.2% BSA • 5. Wash Buffer • 50 mM Hepes, pH 7.4 Procedures for HEK293/AT2 Receptor Transient Cell Transfection • Cells were plated into 150 mm dish at 50% density for transient transfection. Cells were ready for transfection after overnight incubation (the confluence reaches around 80%). • 75 μL Lipofectamine™2000 diluted in 6.25 mL OptiMEM I Reduced Serum Medium, was mixed gently, and incubated at room temperature for 5 minutes. 50 μg expression plasmid DNA diluted in 6.25 mL OptiMEM I Reduced Serum Medium without serum was mixed gently. • After the 5 minute incubation, the diluted DNA was combined with the diluted Lipofectamine™2000 (total volume is 12.5 mL). The mixture was mixed gently and incubated for 30 minutes at room temperature to allow the DNA-Lipofectamine™2000 complexes to form. • The 12.5 mL DNA-Lipofectamine™2000 complexes were added into the 150 mm dish and mixed gently by rocking the dish back and forth. • The cells were incubated at 37° C. with 5% CO2 for 48 hours. • Cells were collected and stored frozen at −80° C. Procedures for HEK293/AT2 Receptor Cell Membrane Preparation • Frozen HEK293/AT2 receptor (transient transfected) cells were homogenized in ice cold TE buffer for 10 s. • The homogenate was centrifuged at 25,000 g for 30 minutes. • The pellet was resuspended in ice cold tissue buffer. • Protein concentrations were determined using Bradford assay method with BSA as standard. • The membrane protein was frozen under −80° C. Compound Preparation
Sequence of AT2 receptor (P50052 whole entry, species assumed): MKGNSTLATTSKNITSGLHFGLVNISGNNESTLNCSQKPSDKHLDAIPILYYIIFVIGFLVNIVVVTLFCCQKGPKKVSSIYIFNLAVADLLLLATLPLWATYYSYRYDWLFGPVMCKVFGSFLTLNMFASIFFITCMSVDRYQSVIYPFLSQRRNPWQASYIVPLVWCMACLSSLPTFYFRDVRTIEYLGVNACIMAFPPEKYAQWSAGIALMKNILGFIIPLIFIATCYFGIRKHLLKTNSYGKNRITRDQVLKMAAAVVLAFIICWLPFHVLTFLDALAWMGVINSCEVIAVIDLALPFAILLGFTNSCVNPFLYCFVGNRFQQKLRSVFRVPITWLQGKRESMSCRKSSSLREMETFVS
Solutions of all compounds were prepared by microplate liquid handling equipment such as Janus or Precision 2000. Compounds, dissolved in DMSO were stored in a Freezer. Compounds were prepared from 30 mM in 100% DMSO.
Step 1: Dose Plate Preparation (96 Well Plate)
• Add the 3 μL [30 mM] compound stock to column 1 on the plate. • Add 15 μL of 100% DMSO to column 1. • Add 10.81 μL of 100% DMSO to column 2-12. • Transfer 5 μL from column 1 into column 2 (half log dilution). • Transfer 5 μL from column 2 into column 3 (half log dilution). • Transfer 5 μL from column 3 into column 4 (half log dilution). • Transfer 5 μL from column 4 into column 5 (half log dilution). • Transfer 5 μL from column 5 into column 6 (half log dilution). • Transfer 5 μL from column 6 into column 7 (half log dilution). • Transfer 5 μL from column 7 into column 8 (half log dilution). • Transfer 5 μL from column 8 into column 9 (half log dilution). • Transfer 5 μL from column 9 into column 10 (half log dilution) • Transfer 5 μL from column 10 into column 11 (half log dilution) • Transfer 5 μL from column 11 into column 12 (half log dilution). All the compounds were diluted using Precision 2000 microplate liquid handling equipment. The top concentration of compound was 5 mM with 100% DMSO. Step 2: Working Plate Preparation (96 Well Plate) • Compounds were diluted 50-fold with buffer. • 49 μL buffer was added to the well of 96 well plate. • 1 μL compound solution from dose plate was transferred to the corresponding well of working plate. • The top concentration of compound was 100 μM with 2% DMSO. Step 3: Assay Plate Preparation (96 Well Plate)
15 μL of compound solution was transferred from each well of working plate to the well of assay plate by Janus.

The IC50 is the concentration that gives 50% inhibition. Read a high IC50 as a need for much substance. Regarding `O=C(O)[C@@H]1C[C@H](OCC#Cc2ccccc2)CCN1C(=O)C(c1ccccc1)c1ccccc1` [Compound 40, (2S,4R)-1-(2,2-diphenylacetyl)-4-((3-phenylprop-2-yn-yl)oxy)piperidine-2-carboxylic acid], the IC50 worked out at 0.228 µM.
`CC#CCN(C)[C@H]1CCN(C(=O)C(c2ccccc2)c2ccccc2)[C@H](C(=O)O)C1` [Compound 43] gave an IC50 of 2.05 µM.
The result for `CN(CCc1ccccc1)[C@@H]1CCN(C(=O)C(c2ccccc2)c2ccccc2)[C@H](C(=O)O)C1` [Compound 34, (2S,4R)-1-(2,2-diphenylacetyl)-4-(methyl(3-phenethyl)amino)piperidine-2-carboxylic acid] reads 0.918 µM; that for `CN(CC#CC(C)(C)C)[C@@H]1CCN(C(=O)C(c2ccccc2)c2ccccc2)[C@H](C(=O)O)C1` [Compound 54, (2S,4R)-4-((4,4-dimethylpent-2-yn-1-yl)(methyl)amino)-1-(2,2-diphenylacetyl)piperidine-2-carboxylic acid], 0.0339 µM.
`O=C(O)[C@@H]1C[C@H](OCCCc2ccccc2)CCN1C(=O)C(c1ccccc1)c1ccccc1` [Compound 41, (2S,4R)-1-(2,2-diphenylacetyl)-4-((3-phenylpropyl)oxy)piperidine-2-carboxylic acid] had an IC50 of 0.101 µM.
The result for `O=C(O)[C@@H]1C[C@@H](N2CCC[C@H](c3ccccc3)C2)CCN1C(=O)C(c1ccccc1)c1ccccc1` [Compound 56, (2′S,3R,4′R)-1-(2,2-diphenylacetyl)-3-phenyl-[1,4′-bipiperidine]-2′-carboxylic acid] reads 0.111 µM.
For `CN(CC#Cc1ccccc1)[C@@H]1CCN(C(=O)C(c2ccccc2)c2ccccc2)[C@H](C(=O)O)C1` [Compound 32], the IC50 was 0.108 µM.
The result for `O=C(O)[C@@H]1Cc2c(c3ccccc3n2Cc2ccccc2)CN1C(=O)C(c1ccccc1)c1ccccc1` [Compound 1] reads 0.21 µM; that for `O=C(O)[C@@H]1C[C@@H](N2CCC[C@@H](c3ccccc3)C2)CCN1C(=O)C(c1ccccc1)c1ccccc1` [Compound 58, (2′S,3S,4′S)-1′-(2,2-diphenylacetyl)-3-phenyl-[1,4′-bipiperidine]-2′-carboxylic acid], 0.17 µM.
In the case of `O=C(O)[C@@H]1C[C@H](N2CCC[C@@H](c3ccccc3)C2)CCN1C(=O)C(c1ccccc1)c1ccccc1` [Compound 57, (2′S,3S,4′R)-1′-(2,2-diphenylacetyl)-3-phenyl-[1,4′-bipiperidine]-2′-carboxylic acid] it was 1.44 µM.
The result for `CN(CC#Cc1ccc(F)cc1)[C@H]1CCN(C(=O)C(c2ccccc2)c2ccccc2)[C@H](C(=O)O)C1` [Compound 47, (2S,4S)-1-(2,2-diphenylacetyl)-4-((3-(4-fluorophenyl)prop-2-yn-1-yl)(methyl)amino)piperidine-2-carboxylic acid] reads 1.04 µM; that for `O=C(O)[C@@H]1CC(OCc2ccccc2)CCN1C(=O)C(c1ccccc1)c1ccccc1` (stereo partly drawn) [Compound 26, (2S)-4-(benzyloxy)-1-(2,2-diphenylacetyl)piperidine-2-carboxylic acid], 0.218 µM.
In turn, `CN(CC#Cc1ccc(F)cc1)[C@@H]1CCN(C(=O)C(c2ccccc2)c2ccccc2)[C@H](C(=O)O)C1` [Compound 46] came in with a half-inhibitory concentration (IC50) of 0.0559 µM.
The result for `CN(CCc1ccccc1)[C@H]1CCN(C(=O)C(c2ccccc2)c2ccccc2)[C@H](C(=O)O)C1` [Compound 35, (2S,4S)-1-(2,2-diphenylacetyl)-4-(methyl(3-phenethyl)amino)piperidine-2-carboxylic acid] reads 0.101 µM.
The result for `CN(Cc1ccccc1)[C@@H]1CCN(C(=O)C(c2ccccc2)c2ccccc2)[C@H](C(=O)O)C1` [Compound 38, (2S,4R)-4-(benzyl(methyl)amino)-1-(2,2-diphenylacetyl)piperidine-2-carboxylic acid] reads 0.854 µM; that for `O=C(O)[C@@H]1C[C@H](N2CCC[C@H](c3ccccc3)C2)CCN1C(=O)C(c1ccccc1)c1ccccc1` [Compound 55, (2′S,3R,4′R)-1′-(2,2-diphenylacetyl)-3-phenyl-[1,4′-bipiperidine]-2′-carboxylic acid], 0.294 µM; that for `CN(CC#Cc1ccccc1)[C@H]1CCN(C(=O)C(c2ccccc2)c2ccccc2)[C@H](C(=O)O)C1` [Compound 33, (2S,4S)-1-(2,2-diphenylacetyl)-4-(methyl(3-phenylprop-2-yn-1yl)amino)piperidine-2-carboxylic acid], 2.71 µM.
The result for `CN(Cc1ccccc1)[C@H]1CCN(C(=O)C(c2ccccc2)c2ccccc2)[C@H](C(=O)O)C1` [Compound 39, (2S,4S)-4-(benzyl(methyl)amino)-1-(2,2-diphenylacetyl)piperidine-2-carboxylic acid] reads 0.648 µM.
The molecule `O=C(O)[C@@H]1Cc2c(ccc3c2Oc2ccccc2O3)CN1C(=O)C(c1ccccc1)c1ccccc1` [Compound 9, (S)-3-(2,2-diphenylacetyl)-1,2,3,4-tetrahydrobenzo[5,6][1,4]dioxino[2,3-f]isoquinoline-2-carboxylic acid] had an IC50 of 0.159 µM.
The result for `CN(CCCc1ccccc1)[C@@H]1CCN(C(=O)C(c2ccccc2)c2ccccc2)[C@H](C(=O)O)C1` [Compound 31, (2S,4R)-1-(2,2-diphenylacetyl)-4-(methyl(phenylpropyl)amino)piperidine-2-carboxylic acid] reads 5.09 µM; that for `CC#CCN(C)[C@@H]1CCN(C(=O)C(c2ccccc2)c2ccccc2)[C@H](C(=O)O)C1` [Compound 42], 0.852 µM.
